Test results taken from patent EP0409227A2, “Pyrimidine nucleosides, their preparation and pharmaceutical preparations” (MATTHES, Eckart, Dr., priority 1989, dated 1991).

Key:
MT4 Zellen = test: Cytotoxicity: inhibition of proliferation of MT4 cells; assay type: cell-based
Experimental: (§1) Unter dem Aspekt einer möglichen Anwendung der Verbindungen am Menschen wurden ihre antiproliferativen Wirkungen an menschlichen Zellkulturen wie früher beschrieben getestet (E. Matthes et al. Biochem.Biophys.Res.Commun. 153, 825 (1988)). Dabei zeigte sich, daß z.B. 2′,3′-Didesoxy-3-fluor-5-methylcytidin gegenüber der T-Zellinie MT4 eine CD₅₀ von 190 µM aufweist. In einem weiteren Test, in dem eine mögliche Wachstumshemmung koloniebildender Zellen des Knochenmarks der Maus (CFU-GM) untersucht wurde (E. Matthes et al. Biochem.Biophys.Res.Commun. 165, 488 (1989), erwies sich diese Verbindung ebenfalls als kaum proliferationshemmend (CD₅₀ > 500 µM). Die Wirkung weiterer Verbindungen auf die Proliferation von MT4-Zellen ist in Tabelle 3 zusammengefaßt. Tabelle 3

Hep G2 (2.2.15)-Zellen = test: DNA synthesis of Hep G2 (2.2.15) cells (acid-insoluble radioactivity after 3H-thymidine or 3H-deoxyadenosine); assay type: cell-based, menschlichen; settings: 4 days, then 24 h label, mean ± SD of five experiments
Experimental: (§2) Die Testung der antiviralen Wirksamkeit der Nucleoside auf zelluärer Ebene erfolgte an einer menschlichen Hepatoblastom-Zellinie, die mit dem HBV-Genom tranfiziert wurde und sowohl das Oberflächenantigen des Virus (HBsAg) als auch die HBV-DNA permanent produziert und infektiöse Viruspartikel in das Medium abgibt (Hep G2-Zellen, Klon 2.2.15, Sells et al. Proc.Natl.Acad. Sci. 84, 1005 (1987)). Die Zellen (5x10⁵/ml) wurden in RPMI 1640-Medium mit 2 mM Glutamin und 10% fetalem Kälberserum allein oder zusammen mit den Nucleosid-Analoga für 4 Tage inkubiert, danach wurden den Ansätzen für 24 Stunden ³H-Thymidin bzw. ³H-Desoxyadenosin (3 µCi/ml) zugesetzt, die Zellen abzentrifugiert und darin die säureunlösliche Radioaktivität und damit der Einfluß auf die DNA-Synthese bestimmt. Im Inkubationsmedium wurde das HBsAg durch Festphasenradioimmunoassay (Travenol-Genentech Diagnostics, Cambridge, MA) entsprechend den Instruktionen des Herstellers ermittelt. Die Tabelle 4 faßt die Ergebnisse zusammen, die belegen, daß die getesteten Verbindungen hochwirksame und selektive Hemmstoffe der HBV-Vermehrung sind.

[1] = tested on: HBsAg-Sekretion von Hep G2 (2.2.15)-Zellen; test: Inhibition of HBsAg secretion of Hep G2 (2.2.15) cells (solid-phase radioimmunoassay of the medium); assay type: cell-based, HBV
Experimental: as §2

[2] = tested on: koloniebildender Zellen des Knochenmarks der Maus (CFU-GM); test: Growth inhibition of colony-forming bone marrow cells (CFU-GM); assay type: cell-based; settings: mouse bone marrow
Experimental: as §1

HBV-Polymerase = molecular target: T1, HBV-Polymerase (Hepatitis B virus genotype D subtype ayw, UniProt P03156); test: Inhibition of HBV polymerase activity by nucleoside triphosphate analogues (method of Kaplan et al.); assay type: biochemical; settings: 50 % inhibition of HBV polymerase activity; 3 h incubation at 37 °C; read-out: ID₅₀
T1 construct: Es wurde zunächst die Hemmbarkeit der HBV-assoziierten Polymerase; host or cells: virus-associated endogenous polymerase
From the text: Das Hepatitis B Virus (HBV) besitzt eine zirkuläre, partiell doppelsträngige DNA, welche nach Infektion einer Leberzelle durch eine viruseigene Polymerase repliziert wird. Dieser Vorgang setzt jedoch die Synthese einer RNA durch eine zelluläre RNA-Polymerase voraus. Nur diese RNA-Matrize - im Zusammenhang mit der Replikation auch als Prägenom bezeichnet - kann von der HBV-Polymerase für die Synthese zunächst eines RNA-DNA Hybrids und dann der doppelsträngigen DNA benutzt werden. Damit verfügt die HBV-Polymerase über eine enzymatische Aktivität, die der einer reversen Transcriptase ähnelt (Will et al., J.Virology 61, 904 (1987)). Es wurde zunächst die Hemmbarkeit der HBV-assoziierten Polymerase durch die 5′-Triphosphate der erfindungsgemäßen Verbindungen untersucht. Dazu wurde die von Kaplan et al. (J.Virology 12, 995 (1973)) angegebene Methode zur Bestimmung der HBV-Polymerase benutzt, wobei die zu testenden Triphosphate den Ansätzen in verschiedenen Konzentrationen zugesetzt wurden. Die Hemmung der Enzymreaktion wurde nach 3-stündiger Inkubation bei 37 °C durch Vergleich mit einem Kontrollwert ermittelt und daraus die Konzentration der zugesetzten Analoga bestimmt, die zu einer 50 %igen Hemmung der HBV-Polymerase-Aktivität führt (ID₅₀). Tabelle 1 zeigt die Ergebnisse, wobei insbesondere 2′,3′-Didesoxy-3′-fluor-5-methylcytidin durch einen Wert ID₅₀ von 0,03 µM herausragt und damit zu den stärksten bisher bekannten Hemmstoffen der HBV-Polymerase zu rechnen ist. Tabelle 1

[3] = nucleoside 0,01 µM, 4 days + 24 h, mean ± SD of five experiments
[4] = nucleoside 0,1 µM, 4 days + 24 h, mean ± SD of five experiments
[5] = nucleoside 0,01 µM, % of control without nucleoside (100)
[6] = nucleoside 0,1 µM, % of control without nucleoside (100)
[7] = nucleoside 0,03 µM, 4 days + 24 h, mean ± SD of five experiments
[8] = nucleoside 0,3 µM, 4 days + 24 h, mean ± SD of five experiments
[9] = nucleoside 0,03 µM, % of control without nucleoside (100)
[10] = nucleoside 0,3 µM, % of control without nucleoside (100)
[11] = nucleoside 0,003 µM, 4 days + 24 h, mean ± SD of five experiments
[12] = nucleoside 0,003 µM, % of control without nucleoside (100)
[13] = nucleoside 1,0 µM, 4 days + 24 h, mean ± SD of five experiments
[14] = nucleoside 1,0 µM, % of control without nucleoside (100)
[15] = nucleoside 3,0 µM, 4 days + 24 h, mean ± SD of five experiments
[16] = nucleoside 3,0 µM, % of control without nucleoside (100)
[17] = MT4 cells, 50 % inhibition of cell multiplication after 48 h

T1 sequence (P03156 whole entry): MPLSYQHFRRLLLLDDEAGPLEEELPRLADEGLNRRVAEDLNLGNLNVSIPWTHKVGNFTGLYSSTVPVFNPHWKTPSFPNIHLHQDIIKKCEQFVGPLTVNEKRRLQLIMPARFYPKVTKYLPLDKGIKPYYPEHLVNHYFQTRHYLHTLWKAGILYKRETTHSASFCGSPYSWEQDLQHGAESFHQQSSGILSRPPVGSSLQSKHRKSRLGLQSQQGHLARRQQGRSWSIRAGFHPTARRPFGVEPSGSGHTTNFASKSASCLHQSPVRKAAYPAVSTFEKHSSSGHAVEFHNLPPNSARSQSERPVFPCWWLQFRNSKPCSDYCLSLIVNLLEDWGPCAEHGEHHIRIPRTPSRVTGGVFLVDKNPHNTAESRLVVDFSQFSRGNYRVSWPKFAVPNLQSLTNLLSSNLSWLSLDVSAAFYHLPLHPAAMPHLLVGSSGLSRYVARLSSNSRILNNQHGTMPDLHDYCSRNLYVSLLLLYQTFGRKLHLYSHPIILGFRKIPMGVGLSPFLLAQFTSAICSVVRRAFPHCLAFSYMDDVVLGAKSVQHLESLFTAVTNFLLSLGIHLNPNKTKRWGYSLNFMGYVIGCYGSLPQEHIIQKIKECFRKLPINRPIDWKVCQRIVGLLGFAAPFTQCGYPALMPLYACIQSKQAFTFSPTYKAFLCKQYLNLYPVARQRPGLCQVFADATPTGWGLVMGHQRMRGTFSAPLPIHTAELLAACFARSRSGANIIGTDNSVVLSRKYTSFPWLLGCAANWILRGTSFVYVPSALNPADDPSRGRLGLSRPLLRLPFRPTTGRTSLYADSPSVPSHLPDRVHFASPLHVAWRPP

Cc1cn([C@H]2C[C@H](N)[C@@H](CO)O2)c(=O)nc1N [2′,3′-Didesoxy-3′-amino-5-methylcytidin]
CD₅₀ (MT4 Zellen; human, 48 h): 1,2 µM | ^3H-DNA (Hep G2 (2.2.15)-Zellen; nucleoside 0,01 µM): 15445 ± 1830 dpm/Kultur | ^3H-DNA (Hep G2 (2.2.15)-Zellen; nucleoside 0,1 µM): 14350 ± 1570 dpm/Kultur | ^3H-DNA (Hep G2 (2.2.15)-Zellen; nucleoside 0,03 µM): 14180 ± 1650 dpm/Kultur | ^3H-DNA (Hep G2 (2.2.15)-Zellen; nucleoside 0,3 µM): 12160 ± 1860 dpm/Kultur | ^3H-DNA (Hep G2 (2.2.15)-Zellen; nucleoside 0,003 µM): 16020 ± 1790 dpm/Kultur | ^3H-DNA (Hep G2 (2.2.15)-Zellen; nucleoside 1,0 µM): 8150 ± 1125 dpm/Kultur | ^3H-DNA (Hep G2 (2.2.15)-Zellen; nucleoside 3,0 µM): 2100 ± 430 dpm/Kultur | HBsAg [1, 3]: 8,5 ± 1,3 ng/ml | HBsAg [1, 4]: 4,8 ± 0,6 ng/ml | HBsAg [1, 5]: 44% | HBsAg [1, 6]: 25% | HBsAg [1, 7]: 7,0 ± 1,1 ng/ml | HBsAg [1, 8]: 3,2 ± 0,4 ng/ml | HBsAg [1, 9]: 36% | HBsAg [1, 10]: 17% | HBsAg [1, 11]: 13,9 ± 2,9 ng/ml | HBsAg [1, 12]: 72% | HBsAg [1, 13]: 0,3 ± 0,1 ng/ml | HBsAg [1, 14]: 2% | HBsAg [1, 15]: < 0,1 ng/ml | HBsAg [1, 16]: < 1%

Cc1cn([C@H]2C[C@H](Cl)[C@@H](CO)O2)c(=O)nc1N [2′,3′-Didesoxy-3′chlor-5-methylcytidin, 3′-Chlor-2′,3′-didesoxy-5-methylcytidin]
CD₅₀ (MT4 Zellen; [17]): 625 µM | ^3H-DNA (Hep G2 (2.2.15)-Zellen; nucleoside 0,01 µM): 14820 ± 1550 dpm/Kultur | ^3H-DNA (Hep G2 (2.2.15)-Zellen; nucleoside 0,1 µM): 15185 ± 1735 dpm/Kultur | ^3H-DNA (Hep G2 (2.2.15)-Zellen; nucleoside 0,03 µM): 14370 ± 1620 dpm/Kultur | ^3H-DNA (Hep G2 (2.2.15)-Zellen; nucleoside 0,3 µM): 13895 ± 1540 dpm/Kultur | ^3H-DNA (Hep G2 (2.2.15)-Zellen; nucleoside 0,003 µM): 13450 ± 1465 dpm/Kultur | ^3H-DNA (Hep G2 (2.2.15)-Zellen; nucleoside 1,0 µM): 12270 ± 1590 dpm/Kultur | ^3H-DNA (Hep G2 (2.2.15)-Zellen; nucleoside 3,0 µM): 10065 ± 1855 dpm/Kultur | HBsAg [1, 3]: 9,6 ± 1,2 ng/ml | HBsAg [1, 4]: 3,4 ± 0,4 ng/ml | HBsAg [1, 5]: 50% | HBsAg [1, 6]: 18% | HBsAg [1, 7]: 7,1 ± 0,8 ng/ml | HBsAg [1, 8]: 3,2 ± 0,5 ng/ml | HBsAg [1, 9]: 37% | HBsAg [1, 10]: 17% | HBsAg [1, 11]: 18,5 ± 2,6 ng/ml | HBsAg [1, 12]: 96% | HBsAg [1, 13]: 0,4 ± 0,1 ng/ml | HBsAg [1, 14]: 2% | HBsAg [1, 15]: < 0,1 ng/ml | HBsAg [1, 16]: < 1%

Cc1cn([C@H]2C[C@H](F)[C@@H](CO)O2)c(=O)nc1N [2′,3′-Didesoxy-3′-fluor-5-methylcytidin]
CD₅₀ (MT4 Zellen; [17]): 190 µM | ^3H-DNA (Hep G2 (2.2.15)-Zellen; nucleoside 0,01 µM): 15060 ± 1895 dpm/Kultur | ^3H-DNA (Hep G2 (2.2.15)-Zellen; nucleoside 0,1 µM): 14350 ± 1520 dpm/Kultur | ^3H-DNA (Hep G2 (2.2.15)-Zellen; nucleoside 0,03 µM): 15580 ± 1910 dpm/Kultur | ^3H-DNA (Hep G2 (2.2.15)-Zellen; nucleoside 0,3 µM): 13175 ± 1975 dpm/Kultur | ^3H-DNA (Hep G2 (2.2.15)-Zellen; nucleoside 0,003 µM): 13270 ± 1650 dpm/Kultur | ^3H-DNA (Hep G2 (2.2.15)-Zellen; nucleoside 1,0 µM): 8295 ± 1010 dpm/Kultur | ^3H-DNA (Hep G2 (2.2.15)-Zellen; nucleoside 3,0 µM): 2470 ± 295 dpm/Kultur | HBsAg [1, 3]: 7,0 ± 0,9 ng/ml | HBsAg [1, 4]: 0,4 ± 0,1 ng/ml | HBsAg [1, 5]: 36% | HBsAg [1, 6]: 2% | HBsAg [1, 7]: 2,4 ± 0,3 ng/ml | HBsAg [1, 8]: < 0,1 ng/ml | HBsAg [1, 9]: 12% | HBsAg [1, 10]: < 1% | HBsAg [1, 11]: 14,3 ± 2,4 ng/ml | HBsAg [1, 12]: 74% | HBsAg [1, 13]: < 0,1 ng/ml | HBsAg [1, 14]: < 1% | HBsAg [1, 15]: < 0,1 ng/ml | HBsAg [1, 16]: < 1% | CD₅₀ [2]: > 500 µM | IC50 (HBV-Polymerase): 30 nM

Nc1ncnc2c1ncn2[C@H]1C=C[C@@H](CO)O1 [2′,3′-Didehydro-2′,3′-didesoxyadenosin, 9-(2,3-Didesoxy-β-D-glycero-pent-2-enofuranosyl)adenin]
CD₅₀ (MT4 Zellen; human, 48 h): 48 µM | ^3H-DNA (Hep G2 (2.2.15)-Zellen; nucleoside 0,01 µM): 17215 ± 1760 dpm/Kultur | ^3H-DNA (Hep G2 (2.2.15)-Zellen; nucleoside 0,1 µM): 16230 ± 1745 dpm/Kultur | ^3H-DNA (Hep G2 (2.2.15)-Zellen; nucleoside 0,03 µM): 18975 ± 1957 dpm/Kultur | ^3H-DNA (Hep G2 (2.2.15)-Zellen; nucleoside 0,3 µM): 19400 ± 1926 dpm/Kultur | ^3H-DNA (Hep G2 (2.2.15)-Zellen; nucleoside 0,003 µM): 19650 ± 1935 dpm/Kultur | ^3H-DNA (Hep G2 (2.2.15)-Zellen; nucleoside 1,0 µM): 9930 ± 1130 dpm/Kultur | ^3H-DNA (Hep G2 (2.2.15)-Zellen; nucleoside 3,0 µM): 4265 ± 555 dpm/Kultur | HBsAg [1, 3]: 12,4 ± 1,8 ng/ml | HBsAg [1, 4]: 0,5 ± 0,2 ng/ml | HBsAg [1, 5]: 71% | HBsAg [1, 6]: 3% | HBsAg [1, 7]: 4,7 ± 0,6 ng/ml | HBsAg [1, 8]: < 0,1 ng/ml | HBsAg [1, 9]: 27% | HBsAg [1, 10]: < 1% | HBsAg [1, 11]: 16,9 ± 2,6 ng/ml | HBsAg [1, 12]: 96% | HBsAg [1, 13]: < 0,1 ng/ml | HBsAg [1, 14]: < 1% | HBsAg [1, 15]: < 0,1 ng/ml | HBsAg [1, 16]: < 1%
